Like-named read-outs stand apart in the source and are kept apart here.
Columns and labels:
KDR (h) = KDR (h) (Homo sapiens, UniProt P35968); assay: KDR (VEGFR2) (enzymatic assay), TR-FRET; assay type: biochemical; details: read-out: VEGFR 2 (KDR) pIC50 (converted)
Method in brief: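 Human KDR (150 ng/ml) was reacted with 500 nM Btn-Flt3 and 3 μM ATP in 50 mM HEPES pH 7.5, 6 mM MnCl2, 1 mM DTT, 0.1 mM Na3VO4, 0.01% Triton X-100, 1% DMSO, for 120 min at room temperature. Phosphorylation detected by TR-FRET (Eu-anti-P-Tyr/SA-XL665, 60 min), read in RFU.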

FGFR3 (h) = FGFR3 (h) (Homo sapiens, UniProt P22607); assay: FGFR3 (enzymatic assay), TR-FRET; assay type: biochemical; details: read-out: FGFR 3 pIC50 (converted)
Source text: Time-Resolved Fluorescence Resonance Energy Transfer (TR-FRET) signal (ex340 nm.

[1] = target: Ba/F3-FGFR4-transfected cells (Homo sapiens, UniProt P22455); assay: Ba/F3-FGFR4 cellular proliferation assay, Alamar Blue; assay type: cell-based
Method in brief: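 Ba/F3-FGFR4 cells (20000/well) in phenol red-free RPMI-1640 with 10% FBS are exposed to compound for 24 h at 37 °C, 5% CO2. Alamar Blue (resazurin) is then added for 4 h and fluorescence read at ex 540/em 590 nm.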

[2] = average values if tested multiple times

Sequence of Ba/F3-FGFR4-transfected cells (P22455 whole entry, change not shown): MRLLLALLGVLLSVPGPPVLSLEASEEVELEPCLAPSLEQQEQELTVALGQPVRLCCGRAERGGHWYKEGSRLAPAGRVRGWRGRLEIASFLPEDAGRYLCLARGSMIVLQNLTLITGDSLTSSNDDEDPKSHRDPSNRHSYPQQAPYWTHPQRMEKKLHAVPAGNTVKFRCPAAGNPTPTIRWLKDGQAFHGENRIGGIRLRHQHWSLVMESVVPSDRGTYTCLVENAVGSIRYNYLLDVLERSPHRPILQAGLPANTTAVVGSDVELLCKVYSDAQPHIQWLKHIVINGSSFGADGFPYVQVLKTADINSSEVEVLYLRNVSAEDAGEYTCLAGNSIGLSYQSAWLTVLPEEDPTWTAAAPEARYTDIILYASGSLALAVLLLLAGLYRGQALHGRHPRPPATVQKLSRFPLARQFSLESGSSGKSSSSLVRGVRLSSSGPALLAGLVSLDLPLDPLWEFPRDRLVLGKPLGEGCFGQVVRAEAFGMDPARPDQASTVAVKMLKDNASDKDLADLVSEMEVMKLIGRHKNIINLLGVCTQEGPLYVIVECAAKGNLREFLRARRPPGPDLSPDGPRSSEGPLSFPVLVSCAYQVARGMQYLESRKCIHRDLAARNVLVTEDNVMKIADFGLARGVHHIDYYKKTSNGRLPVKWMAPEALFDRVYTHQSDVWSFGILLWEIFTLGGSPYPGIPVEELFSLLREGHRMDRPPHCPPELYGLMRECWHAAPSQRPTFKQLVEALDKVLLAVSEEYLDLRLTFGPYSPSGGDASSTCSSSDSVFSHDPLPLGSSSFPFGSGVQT
Sequence of KDR (h) (P35968 20-1356): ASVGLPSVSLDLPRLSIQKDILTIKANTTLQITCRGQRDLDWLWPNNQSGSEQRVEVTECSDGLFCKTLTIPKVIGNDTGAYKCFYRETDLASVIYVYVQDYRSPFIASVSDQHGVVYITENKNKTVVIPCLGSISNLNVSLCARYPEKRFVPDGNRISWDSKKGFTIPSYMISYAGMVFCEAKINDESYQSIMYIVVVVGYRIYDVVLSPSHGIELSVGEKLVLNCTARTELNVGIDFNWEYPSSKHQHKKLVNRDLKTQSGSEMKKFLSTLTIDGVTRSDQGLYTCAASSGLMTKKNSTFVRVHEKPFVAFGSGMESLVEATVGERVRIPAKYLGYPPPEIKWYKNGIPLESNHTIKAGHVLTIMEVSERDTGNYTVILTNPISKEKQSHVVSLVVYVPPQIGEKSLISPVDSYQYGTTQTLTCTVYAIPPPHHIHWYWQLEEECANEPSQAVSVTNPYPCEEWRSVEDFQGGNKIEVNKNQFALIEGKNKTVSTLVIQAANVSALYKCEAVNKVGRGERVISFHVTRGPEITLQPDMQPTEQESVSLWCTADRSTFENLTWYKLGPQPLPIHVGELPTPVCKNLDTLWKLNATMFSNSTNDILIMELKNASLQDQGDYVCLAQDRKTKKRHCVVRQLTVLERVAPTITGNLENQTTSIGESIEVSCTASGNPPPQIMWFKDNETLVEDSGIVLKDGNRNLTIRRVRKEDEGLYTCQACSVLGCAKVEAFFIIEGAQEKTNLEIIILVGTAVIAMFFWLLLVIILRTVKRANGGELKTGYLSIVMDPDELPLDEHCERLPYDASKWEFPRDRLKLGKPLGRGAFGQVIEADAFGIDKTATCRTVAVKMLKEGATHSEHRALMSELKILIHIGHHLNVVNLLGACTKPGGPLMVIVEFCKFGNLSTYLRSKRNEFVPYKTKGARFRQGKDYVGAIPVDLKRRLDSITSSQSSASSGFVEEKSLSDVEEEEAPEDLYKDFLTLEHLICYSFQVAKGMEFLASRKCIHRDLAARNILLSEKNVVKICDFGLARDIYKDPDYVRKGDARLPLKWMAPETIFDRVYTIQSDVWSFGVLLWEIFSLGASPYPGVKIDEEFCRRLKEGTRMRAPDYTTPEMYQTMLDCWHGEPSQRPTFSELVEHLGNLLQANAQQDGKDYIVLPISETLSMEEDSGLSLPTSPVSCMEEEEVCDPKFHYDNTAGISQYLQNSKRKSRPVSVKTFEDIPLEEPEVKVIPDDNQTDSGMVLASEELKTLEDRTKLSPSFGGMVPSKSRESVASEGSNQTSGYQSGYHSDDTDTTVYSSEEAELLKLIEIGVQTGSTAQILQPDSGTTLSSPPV
Sequence of FGFR3 (h) (P22607 23-806): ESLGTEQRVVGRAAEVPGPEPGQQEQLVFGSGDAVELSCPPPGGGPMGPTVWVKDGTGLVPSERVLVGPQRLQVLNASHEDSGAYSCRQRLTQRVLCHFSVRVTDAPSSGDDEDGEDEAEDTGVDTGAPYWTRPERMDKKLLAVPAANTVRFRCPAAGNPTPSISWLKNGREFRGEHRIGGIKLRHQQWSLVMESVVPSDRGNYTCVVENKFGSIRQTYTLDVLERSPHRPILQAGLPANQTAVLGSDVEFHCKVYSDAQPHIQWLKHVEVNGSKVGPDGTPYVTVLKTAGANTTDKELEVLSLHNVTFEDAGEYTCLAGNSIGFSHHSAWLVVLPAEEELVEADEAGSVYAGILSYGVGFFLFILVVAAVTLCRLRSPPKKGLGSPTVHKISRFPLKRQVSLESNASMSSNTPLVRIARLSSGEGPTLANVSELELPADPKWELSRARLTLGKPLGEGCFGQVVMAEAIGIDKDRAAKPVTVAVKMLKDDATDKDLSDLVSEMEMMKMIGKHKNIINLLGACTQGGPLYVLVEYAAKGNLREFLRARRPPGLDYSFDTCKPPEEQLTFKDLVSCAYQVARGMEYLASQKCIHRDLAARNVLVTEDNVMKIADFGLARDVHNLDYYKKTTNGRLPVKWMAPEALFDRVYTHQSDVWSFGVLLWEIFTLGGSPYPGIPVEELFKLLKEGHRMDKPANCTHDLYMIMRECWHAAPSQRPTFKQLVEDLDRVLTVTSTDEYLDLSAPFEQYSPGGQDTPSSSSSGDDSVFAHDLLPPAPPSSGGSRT

Row | SMILES | IC50 (KDR (h); [2]) [nM] | IC50 (FGFR3 (h); [2]) [nM] | melting point [°C] | BAF3-FGFR4 pIC50 [1] | IC50 (KDR (h)) [nM] | IC50 (FGFR3 (h)) [nM]
1 | CNCCn1/c(=N/c2c(F)cccc2F)ccc2ncc(-c3cnn(C)c3)nc21 [Compound 44] | > 1000 | ~794 | 80 | <5 |  | 
2 | COc1cc(/N=c2\ccc3ncc(-c4cnn(C)c4)nc3n2CC2CCC(=O)N2)c(F)c(OC)c1 (stereo not shown) [Compound 45] | 13.5 | 1.35 | 127 | 6.59 |  | 
3 | COc1cc(OC)cc(N(CC2CCC(=O)N2)c2ccc3ncc(-c4cnn(C)c4)nc3n2)c1 (stereo not shown) [Compound 49] | 60.3 | 1.62 | 182 | 6.24 |  | 
4 | COCC(O)CN(c1ccc2ncc(-c3cnn(C)c3)nc2n1)c1c(F)c(OC)cc(OC)c1F (stereo not shown) [Compound 50] | 21.9 | 3.63 | 162 to 163 | 7.66 |  | 
5 | COCC(O)Cn1c(=Nc2c(F)c(OC)cc(OC)c2F)ccc2ncc(-c3cnn(C)c3)nc21 (stereo not shown) [Compound 51] | 7.76 | 0.501 | 180 | 7.77 |  | 
6 | COc1cc(OC)c(F)c(/N=c2\ccc3ncc(-c4cnn(C)c4)nc3n2CCCN2CCCC2=O)c1F [Compound 55] | 2.82 | 0.49 | 227 | 7.71 |  | 
7 | COc1cc(OC)cc(N(Cc2nc[nH]n2)c2ccc3ncc(-c4cnn(C)c4)nc3n2)c1 [Compound 71] | 19.1 | 0.776 | 238 | 7.14 |  | 
8 | COc1cc(O)cc(N(Cc2ncc[nH]2)c2ccc3ncc(-c4cnn(C)c4)nc3n2)c1F [Compound 95] | 2.75 | 0.447 | 218 | 8.03 |  | 
9 | COc1cc(OC)c(Cl)c(N(C[C@H]2CCC(=O)N2)c2ccc3ncc(-c4cnn(C)c4)nc3n2)c1Cl [Compound 97] | 95.5 | 4.68 | 150 | 5.95 |  | 
10 | COc1cc(O)cc(N(Cc2ncc[nH]2)c2ccc3ncc(-c4cnn(C)c4)nc3n2)c1 [Compound 103] | 5.37 | 0.417 | 172 | ~7.43 |  | 
11 | COc1cc(OC)cc(N(CC2CCCCO2)c2ccc3ncc(-c4cnn(C)c4)nc3n2)c1 (stereo not shown) [Compound 129] |  |  | 137 | 6.36 | 58.9 | 2.69
12 | COc1cc(OC)c(F)c(N(CC2CCCCO2)c2ccc3ncc(-c4cnn(C)c4)nc3n2)c1 (stereo not shown) [Compound 139] |  |  | 94 | 6.61 | 28.8 | 2.75
13 | COc1cc(OC)c(F)c(N(Cc2nn[nH]n2)c2ccc3ncc(-c4cnn(C)c4)nc3n2)c1 [Compound 140] |  |  | 149 | <5 | 56.2 | 5.62
